The term IC50 denotes the midpoint of a concentration-inhibition curve. Read a low IC50 as greater potency. In general, T/C refers to the ratio of treated to control.

The text below walks through data of ChEMBL document CHEMBL3400135, “Design, synthesis and biological evaluation of novel homocamptothecin analogues as potent antitumor agents” (Bioorg Med Chem, 2015).

Activity calls are given as the source filed them. No cut-off for these calls is given here.

Series [1] addresses T1, DNA topoisomerase 1 (Homo sapiens) (UniProt P11387).
T1 sequence (whole entry): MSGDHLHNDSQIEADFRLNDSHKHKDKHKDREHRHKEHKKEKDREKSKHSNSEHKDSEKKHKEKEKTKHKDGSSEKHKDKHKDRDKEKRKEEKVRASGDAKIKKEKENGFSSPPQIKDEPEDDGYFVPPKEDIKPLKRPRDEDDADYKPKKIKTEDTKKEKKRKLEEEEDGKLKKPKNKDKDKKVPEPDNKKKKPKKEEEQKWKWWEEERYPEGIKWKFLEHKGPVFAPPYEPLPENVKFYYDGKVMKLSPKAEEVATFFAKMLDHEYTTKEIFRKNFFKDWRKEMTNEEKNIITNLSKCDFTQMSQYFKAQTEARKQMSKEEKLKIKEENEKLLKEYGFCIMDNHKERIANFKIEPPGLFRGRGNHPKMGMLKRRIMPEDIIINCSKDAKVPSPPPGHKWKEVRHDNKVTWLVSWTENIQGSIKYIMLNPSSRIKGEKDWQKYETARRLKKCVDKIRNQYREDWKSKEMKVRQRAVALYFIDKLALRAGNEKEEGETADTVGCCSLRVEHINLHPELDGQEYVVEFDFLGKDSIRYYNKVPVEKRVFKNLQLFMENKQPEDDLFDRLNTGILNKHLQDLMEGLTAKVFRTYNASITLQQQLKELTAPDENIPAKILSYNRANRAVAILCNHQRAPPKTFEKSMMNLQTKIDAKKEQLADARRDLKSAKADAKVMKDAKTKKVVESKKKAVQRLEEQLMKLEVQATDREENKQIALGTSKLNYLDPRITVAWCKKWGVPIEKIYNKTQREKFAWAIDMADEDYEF
As to the kind of experiment: Inhibition of topoisomerase 1 (unknown origin) at 10 uM using supercoiled pBR322 DNA substrate by ethidium bromide staining based electrophoresis method.

Series [2] in a line: Cytotoxicity against human HCT116 cells after 72 hrs by sulforhodamine B assay. In kind it is functional, cell-based, HCT-116. On the technique in general: The SRB assay estimates cell density from bound dye.
The subject of series [3] is HT-29. Put plainly: Cytotoxicity against human HT-29 cells after 72 hrs by sulforhodamine B assay. In kind it is functional, cell-based.
Series [4] addresses T1, DNA topoisomerase 1 (Homo sapiens). Put plainly: Inhibition of topoisomerase 1 (unknown origin) at 100 uM using supercoiled pBR322 DNA substrate by ethidium bromide staining based electrophoresis method.
Series [5] in a line: Stability in human plasma assessed as lactone moieties level at 1 uM incubated at 37 degC after 3 hrs by HPLC method. Particulars: read-out: Stability. The class given is ADME, cell-free.
The subject of the next series is HCT-116. Put plainly: Potency index, ratio of IC50 for SN38 to IC50 for compound against human HCT116 cells after 72 hrs by sulforhodamine B assay. The class given is functional.
Series [6] in a line: Inhibition of survivin protein expression in human HCT116 cells at 5 nM after 48 hrs by Western blot method. The class given is functional, cell-based. Particulars: HCT-116.
Series [7] in a line: Inhibition of survivin protein expression in human HCT116 cells at 1 nM after 48 hrs by Western blot method. The following applies: HCT-116. In kind it is functional, cell-based. In general terms: In western blotting, separated proteins are transferred to a membrane and probed.
For series [8], the system named is Mus musculus. Put plainly: Toxicity in human HT-29 cells xenografted mouse assessed as body weight level at 15 mg/kg, iv dosed three times per week to the end of treatment measured on day 10 (reference value: 22.4 +/- 1.3 g). In kind it is organism-based. Also noted: dose 15 mg/kg, route intravenous. The following applies: in vivo.
Series [9] concerns Mus musculus. Put plainly: Toxicity in human HT-29 cells xenografted mouse assessed as body weight level at 15 mg/kg, iv dosed three times per week to the end of treatment measured on day 14 (reference value: 22.7 +/- 1.5 g). In kind it is organism-based. Also noted: dose 15 mg/kg, route intravenous. The following applies: in vivo.
Series [10] deals with Mus musculus. As to the kind of experiment: Toxicity in human HT-29 cells xenografted mouse assessed as body weight level at 15 mg/kg, iv dosed three times per week to the end of treatment measured on day 17 (reference value: 22 +/- 1.7 g). In kind it is organism-based. Also noted: dose 15 mg/kg, route intravenous. The following applies: in vivo. On the technique in general: Xenograft models place foreign cells or tissue in a host animal.

Series [11] has as its system Mus musculus. As to the kind of experiment: Toxicity in human HT-29 cells xenografted mouse assessed as lethal toxicity at 15 mg/kg, iv dosed three times per week to the end of treatment. In kind it is organism-based. Also noted: dose 15 mg/kg, route intravenous. Particulars: in vivo.
The test system of series [12] is Mus musculus. As to the kind of experiment: Toxicity in human HT-29 cells xenografted mouse assessed as body weight level at 15 mg/kg, iv dosed three times per week to the end of treatment measured on day 3 (reference value: 20.7 +/- 1.2 g). Also noted: dose 15 mg/kg, route intravenous. The class given is organism-based. Particulars: in vivo.
The test system of series [13] is Mus musculus. Put plainly: Toxicity in human HT-29 cells xenografted mouse assessed as body weight level at 15 mg/kg, iv dosed three times per week to the end of treatment measured on day 7 (reference value: 21.7 +/- 1 g). In kind it is organism-based. Also noted: dose 15 mg/kg, route intravenous. Particulars: in vivo.
Series [14] relates to Mus musculus. As to the kind of experiment: Toxicity in human HT-29 cells xenografted mouse assessed as body weight level at 15 mg/kg, iv dosed three times per week to the end of treatment measured on day 21 (reference value: 21.2 +/- 1.6 g). In kind it is organism-based. Also noted: dose 15 mg/kg, route intravenous. The following applies: in vivo.
Series [15] relates to HT-29. Put plainly: Antitumor activity against human HT-29 cells xenografted in mouse assessed as relative tumor increment rate at 15 mg/kg, iv dosed three times per week to the end of treatment relative to untreated control. In kind it is functional.

Consider `CC[C@]1(O)c2cc3n(c(=O)c2COC(=O)[C@H]1OC(C)=O)Cc1c-3nc2ccc(OC)cc2c1C1CCN(C)CC1`, for which the inhibition result in [1] and in series [4] was “Active” throughout. Also, the IC50 amounted to 13.2 nM in series [2] (Homo sapiens, HCT-116, 72 h) and 54.7 nM in the series with HT-29 [3] (Homo sapiens, HT-29, 72 h).
As to `CC[C@]1(O)c2cc3n(c(=O)c2COC(=O)[C@H]1OC)Cc1c-3nc2ccccc2c1C1CCN(C)CC1`, the inhibition entry in series [1] and in [4] was “Active” throughout. For the same molecule, the IC50 in [2] (Homo sapiens, HCT-116, 72 h) came to 3.23 nM; in the series with HT-29 [3] (Homo sapiens, HT-29, 72 h) it was 17.2 nM.
For the molecule `CC[C@]1(O)c2cc3n(c(=O)c2COC(=O)[C@H]1OC(C)=O)Cc1c-3nc2ccccc2c1C1CCN(C)CC1`, the inhibition entry in series [1] and in [4] was “Active” in each case. Further, the IC50 was found to be 9.74 nM in series [2] (Homo sapiens, HCT-116, 72 h) and 63.8 nM with HT-29 [3] (Homo sapiens, HT-29, 72 h).
Regarding `CC[C@]1(O)c2cc3n(c(=O)c2COC(=O)[C@H]1OC)Cc1c-3nc2ccccc2c1-c1cn(C)cn1`, the inhibition result in series [1] and in [4] was “Active” in each case. Besides, the IC50 in series [2] (Homo sapiens, HCT-116, 72 h) turned out to be 1.26 nM; with HT-29 [3] (Homo sapiens, HT-29, 72 h) it was 4.11 nM.
As to `CC[C@]1(O)c2cc3n(c(=O)c2COC(=O)[C@H]1OC(C)=O)Cc1c-3nc2ccccc2c1-c1cn(C)cn1`, the inhibition result in [1] and in series [4] was “Active” throughout. The IC50 is 1.47 nM in series [2] (Homo sapiens, HCT-116, 72 h) and 9.11 nM with HT-29 [3] (Homo sapiens, HT-29, 72 h).
Consider `CCc1c2c(nc3ccc(O)cc13)-c1cc3c(c(=O)n1C2)COC(=O)[C@]3(O)CC` [7-ETHYL-10-HYDROXYCAMPTOTHECIN], for which the remaining at 3 h, 1 µM in series [5] came to 20%. The IC50 in series [2] (Homo sapiens, HCT-116, 72 h) stood at 4.28 nM; in the series with HT-29 [3] (Homo sapiens, HT-29, 72 h) it was 18.5 nM.
For the molecule `CC[C@]1(O)c2cc3n(c(=O)c2COC(=O)[C@H]1OC)Cc1cc2cc(O)ccc2nc1-3`, the inhibition result in series [1] and in series [4] was “Active” each time. For the same molecule, the half-maximal inhibitory concentration (IC50) in series [2] (Homo sapiens, HCT-116, 72 h) was determined as 4.46 nM; in the series on HT-29 [3] (Homo sapiens, HT-29, 72 h), 26.7 nM.
In the case of `CC[C@]1(O)c2cc3n(c(=O)c2COC(=O)[C@H]1OC)Cc1c-3nc2cc3c(cc2c1-c1ccncc1)OCO3` [listing 1 of 2 here], in the series on HCT-116, the “Ratio IC50” value is given as 20. For the same molecule, the IC50 in series [2] (hct-116) was determined as 0.215 nM; in the series with HT-29 [3] (ht-29), 1.27 nM.
With `CC[C@]1(O)c2cc3n(c(=O)c2COC(=O)[C@H]1OC(C)=O)Cc1c-3nc2ccccc2c1-c1ccncc1`, the IC50 in series [2] (Homo sapiens, HCT-116, 72 h) worked out at 2.95 nM; with HT-29 [3] (Homo sapiens, HT-29, 72 h) it was 11.4 nM. The inhibition result in series [4] was “inactive”.
For the molecule `CC[C@]1(O)c2cc3n(c(=O)c2COC(=O)[C@H]1OC(C)=O)Cc1c-3nc2ccc(OC)cc2c1-c1ccncc1`, the inhibition result in series [1] and in series [4] was “Active” each time. The IC50 in series [2] (Homo sapiens, HCT-116, 72 h) worked out at 7.99 nM; in the series with HT-29 [3] (Homo sapiens, HT-29, 72 h), 31 nM.
Regarding `CC[C@]1(O)c2cc3n(c(=O)c2COC(=O)[C@H]1OC)Cc1c-3nc2ccc(OC)cc2c1C1CCN(C)CC1`, the inhibition entry in series [1] and in series [4] was “Active” in each case. In addition, the IC50 worked out at 8.23 nM in series [2] (Homo sapiens, HCT-116, 72 h) and 27.1 nM in the series with HT-29 [3] (Homo sapiens, HT-29, 72 h).
On to `CC[C@]1(O)c2cc3n(c(=O)c2COC(=O)[C@H]1OC)Cc1cc2cc4c(cc2nc1-3)OCO4`, for which the inhibition result in [1], in [6], in series [7] and in series [4] was “Active” in each case. For the same molecule, the IC50 in series [2] (Homo sapiens, HCT-116, 72 h) was found to be 0.2 nM; in the series with HT-29 [3] (Homo sapiens, HT-29, 72 h) it was 0.3 nM.
Turning to `CC[C@]1(O)c2cc3n(c(=O)c2COC(=O)[C@H]1OC)Cc1c-3nc2ccccc2c1-c1ccncc1`, the inhibition result in series [1] and in series [4] was “Active” in each case. Besides, the concentration for half-maximal inhibition (IC50) in series [2] (Homo sapiens, HCT-116, 72 h) worked out at 2.12 nM; with HT-29 [3] (Homo sapiens, HT-29, 72 h), 7.18 nM.
Regarding `CCc1c2c(nc3ccc(OC(=O)N4CCC(N5CCCCC5)CC4)cc13)-c1cc3c(c(=O)n1C2)COC(=O)[C@]3(O)CC` [IRINOTECAN], the Activity is 21.6 g in the series on Mus musculus [8]; 22.4 g in the series with Mus musculus [9]; 22.3 g in the series with Mus musculus [10]; “Non-toxic” with Mus musculus [11]; 19.9 g in the series with Mus musculus [12]; 20.8 g in the series on Mus musculus [13]. Also, the Activity with Mus musculus [14] is 21.3 g. Moreover, in the series with HT-29 [15], the T/C is 42.22%.
For the molecule `CC[C@]1(O)c2cc3n(c(=O)c2COC(=O)[C@H]1OC)Cc1c-3nc2ccc(OC)cc2c1-c1ccncc1`, the inhibition entry in series [1] and in series [4] was “Active” each time. The IC50 in series [2] (Homo sapiens, HCT-116, 72 h) was determined as 3.33 nM; in the series with HT-29 [3] (Homo sapiens, HT-29, 72 h) it was 6.76 nM.
Regarding `CC[C@]1(O)c2cc3n(c(=O)c2COC(=O)[C@H]1OC)Cc1c-3nc2cc3c(cc2c1-c1ccncc1)OCO3` [listing 2 of 2 here], the inhibition entry in [6], in [7] and in series [4] was “Active” throughout.
Take `CC[C@]1(O)c2cc3n(c(=O)c2COC(=O)[C@H]1OC)Cc1cc2ccccc2nc1-3`: the inhibition result in series [1] and in series [4] was “Active” throughout. Besides, the IC50 in series [2] (Homo sapiens, HCT-116, 72 h) amounted to 1.72 nM; with HT-29 [3] (Homo sapiens, HT-29, 72 h), 4.79 nM.
